Results: patent US20230407243A1, “GENETIC PLATFORM TO INVESTIGATE THE FUNCTIONS OF BACTERIAL DRUG EFFLUX PUMPS” (priority 2022, published 2023)

Experiments:
Format in all cases: cell-based, Escherichia coli
EKO-35-Pore = assay: MIC susceptibility profiling, porinated strain
Outline: (§1)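 E. coli strains carrying a genomically integrated constitutive fhuA ΔC/Δ4L pore were grown 18 h in LB at 37 °C, then diluted 1/2000 in MHB II from OD600 ~1.0. Compounds were tested in duplicate, 2-fold serial titration, for 18 h at 37 °C with shaking. MIC came from OD600 with the pre-incubation background subtracted.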

[1] = tested on: wild-type E. coli K-12 str. BW25113; assay: microbe, parasite or virus in culture; settings: technical duplicate
Outline: (§2)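 Overnight LB cultures were grown at 37 °C with aeration, then washed into PBS, pH 7.4, to OD600 ~1.0. A 1/2000 dilution in MHB II was exposed to compound dilution series for 18 h at 37 °C. The MIC was taken from corrected OD600.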

E. coli ΔtolC = assay: microbe, parasite or virus in culture; settings: technical duplicate
Outline: as §2

E. coli EKO-35 = assay: microbe, parasite or virus in culture
Outline: as §2

wild-type (WT) K-12-Pore = assay: microbe, parasite or virus in culture; settings: technical duplicate
Outline: as §1

ΔtolC-Pore = assay: microbe, parasite or virus in culture; settings: technical duplicate
Outline: as §1

EKO-35 araC::acrEF = assay: MIC susceptibility profiling, efflux platform
Outline: as §2

EKO-35 araC::mdtBC = assay: MIC susceptibility profiling, efflux platform
Outline: as §2

EKO-35 araC::acrBD408A = assay: MIC susceptibility profiling, efflux platform
Outline: as §2

EKO-35 araC::mexCD Pore = assay: MIC susceptibility profiling, porinated efflux platform
Outline: as §1

[2] = tested on: EKO-35 araC::acrBD408A Pore; assay: as above
Outline: as §1

EKO-35 araC::macAB Pore = assay: as above
Outline: as §1

EKO-35 araC::acrB Pore = assay: as above
Outline: as §1

EKO-35 araC::acrEF Pore = assay: as above
Outline: as §1

EKO-35 araC::acrD Pore = assay: as above
Outline: as §1

EKO-35 araC::mdtEF Pore = assay: as above
Outline: as §1

EKO-35 araC::emrKY Pore = assay: as above
Outline: as §1

EKO-35 araC::mdtBC Pore = assay: as above
Outline: as §1

EKO-35 araC::emrAB Pore = assay: as above
Outline: as §1

[3] = Table 14A, porinated, technical duplicate
[4] = Table 13A, non-porinated, technical duplicate
[5] = Table 13B, non-porinated, technical duplicate

Q: How did the “Fold changes of MICs” value (EKO-35-Pore; EKO-35-Pore compared to EKO-35-Pore (reference)) turn out when `Cn1cc(Br)c(-c2cccc(NC(=O)Nc3ccc(OC(F)(F)F)cc3)c2)n1` [compound 14] was run?
A: 1 fold

Q: What about the “Minimum inhibitory concentration (MIC), Pore EKO-35” value (EKO-35-Pore; Table 10, with pore, technical duplicate) of the same compound?
A: 320 µg/mL

Q: And the “Minimum inhibitory concentration, EKO-35-Pore” value (EKO-35-Pore; [3])?
A: 320 µg/mL

Q: What about the “Minimum inhibitory concentration (MIC), K-12” value ([1]; Table 10, without pore) of the same compound?
A: 320 µg/mL

Q: What about the “Minimum Inhibitory Concentration, K-12” value ([1]; Table 13A, non-porinated) of the same compound?
A: 320 µg/mL

Q: What about the “Minimum inhibitory concentration (MIC), ΔtolC” value (E. coli ΔtolC; Table 10, without pore) of the same compound?
A: 2.5 µg/mL

Q: What about the “Minimum Inhibitory Concentration, ΔtolC” value (E. coli ΔtolC; Table 13A, non-porinated) of the same compound?
A: 2.5 µg/mL

Q: What about the “Fold change of MICs” value (E. coli EKO-35; EKO-35 compared to EKO-35 (reference)) of the same compound?
A: 1 fold

Q: What about the “Minimum inhibitory concentration (MIC), EKO-35” value (E. coli EKO-35; Table 10, without pore, technical duplicate) of the same compound?
A: 320 µg/mL

Q: And the “Minimum Inhibitory Concentration, EKO-35” value (E. coli EKO-35; [4])?
A: 320 µg/mL

Q: What about the “Minimum inhibitory concentration (MIC), Pore K-12” value (wild-type (WT) K-12-Pore; Table 10, with pore) of the same compound?
A: 320 µg/mL

Q: And the “Minimum inhibitory concentration, K-12 (WT)-Pore” value (wild-type (WT) K-12-Pore; Table 14A, porinated)?
A: 320 µg/mL

Q: And the “Minimum inhibitory concentration (MIC), Pore ΔtolC” value (ΔtolC-Pore; Table 10, with pore)?
A: 1.25 µg/mL

Q: What about the “Minimum inhibitory concentration, ΔtolC-Pore” value (ΔtolC-Pore; Table 14A, porinated) of the same compound?
A: 1.25 µg/mL

Q: And the “Fold change of MICs” value (EKO-35 araC::acrEF; EKO-35 araC::acrEF compared to EKO-35)?
A: 1 fold

Q: What about the “Minimum Inhibitory Concentration, EKO-35 araC::acrEF” value (EKO-35 araC::acrEF; [4]) of the same compound?
A: 320 µg/mL

Q: What about the “Fold change of MICs” value (EKO-35 araC::mdtBC; EKO-35 araC::mdtBC compared to EKO-35) of the same compound?
A: 1 fold

Q: And the “Minimum Inhibitory Concentration, EKO-35 araC::mdtBC” value (EKO-35 araC::mdtBC; [5])?
A: 320 µg/mL

Q: What about the “Fold change of MICs” value (EKO-35 araC::acrBD408A; EKO-35 araC::acrBD408A compared to EKO-35) of the same compound?
A: 1 fold

Q: And the “Minimum Inhibitory Concentration, EKO-35 araC::acrBD408A” value (EKO-35 araC::acrBD408A; [5])?
A: 320 µg/mL

Q: What about the “Fold changes of MICs” value (EKO-35 araC::mexCD Pore; EKO-35 araC::mexCD Pore compared to EKO-35-Pore) of the same compound?
A: 1 fold

Q: And the Minimum inhibitory concentration (EKO-35 araC::mexCD Pore; EKO-35 araC::mexCD Pore, technical duplicate)?
A: 320 µg/mL

Q: And the “Fold changes of MICs” value ([2]; EKO-35 araC::acrBD408A Pore compared to EKO-35-Pore)?
A: 1 fold

Q: And the Minimum inhibitory concentration ([2]; EKO-35 araC::acrBD408A Pore, technical duplicate)?
A: 320 µg/mL

Q: And the “Fold changes of MICs” value (EKO-35 araC::macAB Pore; EKO-35 araC::macAB Pore compared to EKO-35-Pore)?
A: 1 fold

Q: And the Minimum inhibitory concentration (EKO-35 araC::macAB Pore; EKO-35 araC::macAB Pore, technical duplicate)?
A: 320 µg/mL

Q: What about the “Fold changes of MICs” value (EKO-35 araC::acrB Pore; EKO-35 araC::acr-B Pore compared to EKO-35-Pore) of the same compound?
A: 1 fold

Q: And the “Minimum inhibitory concentration, EKO-35 araC::acrB Pore” value (EKO-35 araC::acrB Pore; [3])?
A: 320 µg/mL

Q: And the “Fold changes of MICs” value (EKO-35 araC::acrEF Pore; EKO-35 araC::acrEF Pore compared to EKO-35-Pore)?
A: 1 fold

Q: And the “Minimum inhibitory concentration, EKO-35 araC::acrEF Pore” value (EKO-35 araC::acrEF Pore; [3])?
A: 320 µg/mL

Q: What about the “Fold changes of MICs” value (EKO-35 araC::acrD Pore; EKO-35 araC::acrD Pore compared to EKO-35-Pore) of the same compound?
A: 1 fold

Q: What about the “Minimum inhibitory concentration, EKO-35 araC::acrD Pore” value (EKO-35 araC::acrD Pore; [3]) of the same compound?
A: 320 µg/mL

Q: What about the “Fold changes of MICs” value (EKO-35 araC::mdtEF Pore; EKO-35 araC::mdtEF Pore compared to EKO-35-Pore) of the same compound?
A: 1 fold

Q: What about the “Minimum inhibitory concentration, EKO-35 araC::mdtEF Pore” value (EKO-35 araC::mdtEF Pore; [3]) of the same compound?
A: 320 µg/mL

Q: What about the “Fold changes of MICs” value (EKO-35 araC::emrKY Pore; EKO-35 araC::emrKY Pore compared to EKO-35-Pore) of the same compound?
A: 1 fold

Q: And the Minimum inhibitory concentration (EKO-35 araC::emrKY Pore; EKO-35 araC::emrKY Pore, technical duplicate)?
A: 320 µg/mL

Q: What about the “Fold changes of MICs” value (EKO-35 araC::mdtBC Pore; EKO-35 araC::mdtBC Pore compared to EKO-35-Pore) of the same compound?
A: 1 fold

Q: What about the Minimum inhibitory concentration (EKO-35 araC::mdtBC Pore; EKO-35 araC::mdtBC Pore, technical duplicate) of the same compound?
A: 320 µg/mL

Q: And the “Fold changes of MICs” value (EKO-35 araC::emrAB Pore; EKO-35 araC::emrAB Pore compared to EKO-35-Pore)?
A: 1 fold

Q: And the Minimum inhibitory concentration (EKO-35 araC::emrAB Pore; EKO-35 araC::emrAB Pore, technical duplicate)?
A: 320 µg/mL
